According to paper PMC3676432 (Journal of neurochemistry, 2013):

Key:
Assay type in all cases: cell-based
[1] = biological target: mouse muscle nAChR αT254C+L279C (Mus musculus, UniProt P02716+P04756+P04760, C212S/C213S/L299C/T274C); conditions: 2 min
[2] = biological target: mouse muscle nAChR αT254C+M278C (Mus musculus, UniProt P02716+P04756+P04760, C212S/C213S/M298C/T274C); conditions: 2 min
[3] = biological target: mouse muscle nAChR αT254C (Mus musculus, UniProt P02716+P04756+P04760, C212S/C213S/T274C); assay: Effect of reducing/oxidizing reagents on ACh-induced current amplitude; conditions: DTT 10 mM, 2 min; T254C; ACh EC20–50
mouse muscle nAChR αT254C, sequence (P04756 21-457 C212S/C213S/T274C): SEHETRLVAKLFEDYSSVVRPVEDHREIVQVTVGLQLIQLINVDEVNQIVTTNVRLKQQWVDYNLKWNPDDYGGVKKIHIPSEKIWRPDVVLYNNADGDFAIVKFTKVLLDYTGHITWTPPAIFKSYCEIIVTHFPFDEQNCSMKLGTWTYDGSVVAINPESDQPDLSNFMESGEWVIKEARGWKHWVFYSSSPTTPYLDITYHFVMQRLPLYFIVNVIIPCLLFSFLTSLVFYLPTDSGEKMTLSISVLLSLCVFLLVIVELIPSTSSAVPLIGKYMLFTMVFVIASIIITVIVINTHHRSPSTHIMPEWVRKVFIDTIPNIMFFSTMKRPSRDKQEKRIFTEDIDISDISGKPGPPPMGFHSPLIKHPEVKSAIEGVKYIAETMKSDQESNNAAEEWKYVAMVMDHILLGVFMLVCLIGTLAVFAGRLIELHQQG
mouse muscle nAChR αT254C, sequence (P09690 24-501 partner): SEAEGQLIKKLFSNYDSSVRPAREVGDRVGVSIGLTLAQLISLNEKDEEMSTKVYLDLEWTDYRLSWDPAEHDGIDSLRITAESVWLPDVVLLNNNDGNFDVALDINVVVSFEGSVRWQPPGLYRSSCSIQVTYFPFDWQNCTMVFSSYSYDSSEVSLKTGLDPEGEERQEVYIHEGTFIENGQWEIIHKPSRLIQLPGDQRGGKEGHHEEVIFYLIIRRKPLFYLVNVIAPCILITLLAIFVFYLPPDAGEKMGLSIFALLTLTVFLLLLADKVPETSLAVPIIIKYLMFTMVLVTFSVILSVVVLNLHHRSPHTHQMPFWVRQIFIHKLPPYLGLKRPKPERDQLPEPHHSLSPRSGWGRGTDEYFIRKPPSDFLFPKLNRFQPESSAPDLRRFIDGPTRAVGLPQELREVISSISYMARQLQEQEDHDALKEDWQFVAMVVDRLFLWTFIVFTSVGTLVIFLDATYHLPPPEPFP
mouse muscle nAChR αT254C, sequence (P04760 23-519): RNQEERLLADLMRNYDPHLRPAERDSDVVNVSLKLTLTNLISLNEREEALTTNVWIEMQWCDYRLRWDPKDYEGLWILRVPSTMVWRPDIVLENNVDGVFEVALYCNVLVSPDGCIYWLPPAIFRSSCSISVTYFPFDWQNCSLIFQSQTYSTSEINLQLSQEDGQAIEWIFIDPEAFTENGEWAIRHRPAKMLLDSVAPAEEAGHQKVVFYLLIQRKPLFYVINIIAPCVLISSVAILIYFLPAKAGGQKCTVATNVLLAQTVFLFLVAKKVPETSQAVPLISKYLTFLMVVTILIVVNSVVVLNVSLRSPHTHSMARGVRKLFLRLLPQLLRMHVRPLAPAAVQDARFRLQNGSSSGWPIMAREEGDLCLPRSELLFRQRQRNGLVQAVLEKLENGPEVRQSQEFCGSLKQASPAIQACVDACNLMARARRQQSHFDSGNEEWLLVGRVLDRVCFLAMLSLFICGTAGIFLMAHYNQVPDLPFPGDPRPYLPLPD
mouse muscle nAChR αT254C, sequence (P02716 25-520): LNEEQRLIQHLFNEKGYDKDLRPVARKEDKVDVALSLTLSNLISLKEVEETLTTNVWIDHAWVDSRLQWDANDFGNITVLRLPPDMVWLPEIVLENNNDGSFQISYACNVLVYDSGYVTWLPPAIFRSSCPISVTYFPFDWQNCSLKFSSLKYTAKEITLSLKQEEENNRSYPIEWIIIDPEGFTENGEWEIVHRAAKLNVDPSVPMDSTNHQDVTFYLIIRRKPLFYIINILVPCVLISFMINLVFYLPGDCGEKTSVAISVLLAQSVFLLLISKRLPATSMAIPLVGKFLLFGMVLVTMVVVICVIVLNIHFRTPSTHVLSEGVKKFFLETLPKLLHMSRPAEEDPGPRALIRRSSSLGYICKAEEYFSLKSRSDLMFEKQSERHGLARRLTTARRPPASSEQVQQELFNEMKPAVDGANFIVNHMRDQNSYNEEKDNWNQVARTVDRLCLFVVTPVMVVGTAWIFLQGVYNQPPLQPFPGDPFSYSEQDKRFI

[4] = biological target: wild-type mouse muscle nAChR (αC192S-C193S background) (Mus musculus, UniProt P02716+P04756+P04760, C212S/C213S); assay: as above; conditions: DTT 10 mM, 2 min, ACh EC20–50
wild-type mouse muscle nAChR (αC192S-C193S background), sequence (P04756 21-457 C212S/C213S): as the sequence (P04756 21-457 C212S/C213S/T274C) above, with C254T counted along it
wild-type mouse muscle nAChR (αC192S-C193S background), sequence (P09690 24-501 partner): as the sequence (P09690 24-501 partner) above
wild-type mouse muscle nAChR (αC192S-C193S background), sequence (P04760 23-519): as the sequence (P04760 23-519) above
wild-type mouse muscle nAChR (αC192S-C193S background), sequence (P02716 25-520): as the sequence (P02716 25-520) above

[5] = second DTT 10 mM, after Cu:Phen and EGTA

mouse muscle nAChR αT254C+L279C, sequence (P04756 21-457 C212S/C213S/T274C/L299C): as the sequence (P04756 21-457 C212S/C213S/T274C) above, with L279C counted along it
mouse muscle nAChR αT254C+L279C, sequence (P09690 24-501 partner): as the sequence (P09690 24-501 partner) above
mouse muscle nAChR αT254C+L279C, sequence (P04760 23-519): as the sequence (P04760 23-519) above
mouse muscle nAChR αT254C+L279C, sequence (P02716 25-520): as the sequence (P02716 25-520) above
mouse muscle nAChR αT254C+M278C, sequence (P04756 21-457 C212S/C213S/T274C/M298C): as the sequence (P04756 21-457 C212S/C213S/T274C) above, with M278C counted along it
mouse muscle nAChR αT254C+M278C, sequence (P09690 24-501 partner): as the sequence (P09690 24-501 partner) above
mouse muscle nAChR αT254C+M278C, sequence (P04760 23-519): as the sequence (P04760 23-519) above
mouse muscle nAChR αT254C+M278C, sequence (P02716 25-520): as the sequence (P02716 25-520) above

| SMILES | EGTA effect on ACh-induced current amplitudes ([1]; EGTA 2 mM, after Cu:Phen) [%] | EGTA effect on ACh-induced current amplitudes ([2]; EGTA 2 mM, after Cu:Phen) [%] | decrease of current amplitudes by DTT after Cu:Phen [1, 5] [%] | ACh-induced current amplitude after DTT compared to initial current [3] | ACh-induced current amplitude after DTT compared to initial current [4] | increase of current amplitudes by DTT after Cu:Phen [2, 5] [%] |
| --- | --- | --- | --- | --- | --- | --- |
| O=C(O)CN(CCOCCOCCN(CC(=O)O)CC(=O)O)CC(=O)O [EGTA, Ethylene glycol tetraacetic acid] | −9 ± 3 | 1 ± 2 | – | – | – | – |
| O[C@@H](CS)[C@@H](O)CS (racemic) [DTT, Dithiothreitol] | – | – | 47 ± 11 | not significantly altered | not significantly altered | 29 ± 1 |
